Data reported in PubChem BioAssay AID190 (DTP/NCI, 2004).
Values joined by “and” are separate entries in the source; they are usually repeats but may differ in a detail not shown here. Equal entries are not always repeated. Toxic doses and inconclusive results are not listed.

System: AKR/Lw mice, AKR lymphoma ip, median survival T/C
Assay: NCI In Vivo Anticancer Drug Screen. Data for tumor model Lymphoma AKR (Transplanted) (intraperitoneal) in AKR/Lw mice
Details: endpoint: median survival time, higher = longer survival
Method: The antitumor activity of compounds was measured in mice bearing transplantable tumors. Survival or tumor size were measured and the results are expressed as the measurement made in the treated group (T) divided by the measurement made in the vehicle treated control group (C). The tumor model used in this assay is Lymphoma AKR (Transplanted) (intraperitoneal) in AKR/Lw mice

[1] = dose: 100.0 mg/kg/injection, schedule: Q01DX001 (ip), vehicle: Klucel (hydroxypropylcellulose) (HPC)
[2] = dose: 200.0 mg/kg/injection, schedule: Q01DX001 (ip), vehicle: Klucel (hydroxypropylcellulose) (HPC)
[3] = dose: 400.0 mg/kg/injection, schedule: Q01DX001 (ip), vehicle: Klucel (hydroxypropylcellulose) (HPC)
[4] = dose: 100.0 mg/kg/injection, schedule: Q01DX001 (ip), vehicle: saline
[5] = dose: 100.0 mg/kg/injection, schedule: Q04DX003 (ip), vehicle: other
[6] = dose: 100.0 mg/kg/injection, schedule: Q04DX003 (ip), vehicle: Klucel (hydroxypropylcellulose) (HPC)
[7] = dose: 200.0 mg/kg/injection, schedule: Q01DX001 (ip), vehicle: saline
[8] = dose: 200.0 mg/kg/injection, schedule: Q04DX003 (ip), vehicle: Klucel (hydroxypropylcellulose) (HPC)

## CC[C@](O)(C(=O)O)c1cc2n(c(=O)c1CO)Cc1cc3ccccc3nc1-2
dose: 0.02 mg/kg/injection, schedule: Q01DX009 (ip), vehicle: saline
  T/C: 94 % of control
dose: 0.05 mg/kg/injection, schedule: Q01DX009 (ip), vehicle: saline
  T/C: 105 % of control
dose: 0.06 mg/kg/injection, schedule: Q01DX009 (ip), vehicle: saline
  T/C: 106 % of control
dose: 0.1 mg/kg/injection, schedule: Q01DX009 (ip), vehicle: saline
  T/C: 100 % of control and 103 % of control
dose: 0.12 mg/kg/injection, schedule: Q01DX009 (ip), vehicle: saline
  T/C: 100 % of control and 114 % of control
dose: 0.15 mg/kg/injection, schedule: Q01DX009 (ip), vehicle: saline
  T/C: 106 % of control
dose: 0.35 mg/kg/injection, schedule: Q01DX009 (ip), vehicle: saline
  T/C: 106 % of control
dose: 0.37 mg/kg/injection, schedule: Q01DX009 (ip), vehicle: saline
  T/C: 101 % of control
dose: 0.4 mg/kg/injection, schedule: Q01DX009 (ip), vehicle: saline
  T/C: 118 % of control
dose: 0.6 mg/kg/injection, schedule: Q01DX009 (ip), vehicle: saline
  T/C: 96 % of control
dose: 0.6 mg/kg/injection, schedule: Q04DX003 (ip), vehicle: saline
  T/C: 88 % of control
dose: 0.75 mg/kg/injection, schedule: Q01DX009 (ip), vehicle: saline
  T/C: 117 % of control
dose: 1.2 mg/kg/injection, schedule: Q04DX003 (ip), vehicle: saline
  T/C: 97 % of control and 104 % of control
dose: 1.25 mg/kg/injection, schedule: Q01DX001 (ip), vehicle: saline
  T/C: 121 % of control
dose: 2.5 mg/kg/injection, schedule: Q01DX001 (ip), vehicle: saline
  T/C: 107 % of control
dose: 2.5 mg/kg/injection, schedule: Q01DX009 (ip), vehicle: saline
  T/C: 88 % of control and 113 % of control
dose: 3.7 mg/kg/injection, schedule: Q04DX003 (ip), vehicle: saline
  T/C: 106 % of control
dose: 5.0 mg/kg/injection, schedule: Q01DX001 (ip), vehicle: saline
  T/C: 102 % of control and 114 % of control
dose: 7.5 mg/kg/injection, schedule: Q04DX003 (ip), vehicle: saline
  T/C: 112 % of control
dose: 12.5 mg/kg/injection, schedule: Q01DX001 (ip), vehicle: saline
  T/C: 120 % of control
dose: 15.0 mg/kg/injection, schedule: Q04DX003 (ip), vehicle: saline
  T/C: 150 % of control
dose: 18.0 mg/kg/injection, schedule: Q01DX001 (ip), vehicle: saline
  T/C: 95 % of control
dose: 30.0 mg/kg/injection, schedule: Q04DX003 (ip), vehicle: saline
  T/C: 103 % of control and 115 % of control
dose: 40.0 mg/kg/injection, schedule: Q01DX001 (ip), vehicle: saline
  T/C: 113 % of control
dose: 80.0 mg/kg/injection, schedule: Q01DX001 (ip), vehicle: saline
  T/C: 97 % of control

## O=C(c1ccccc1)C1CCC1
[1]
  T/C: 95 % of control
[2]
  T/C: 95 % of control

## CCOC(=O)CCCl
[2]
  T/C: 111 % of control
[3]
  T/C: 97 % of control

## C#CCn1cnc2c(Cl)ncnc21
[1]
  T/C: 97 % of control
[2]
  T/C: 104 % of control
[3]
  T/C: 107 % of control

## CCCCCCCCCCCCCCCC(=O)N(CCCN)CCCCCCCCCN(CCCN)C(=O)CCCCCCCCCCCCCCC
dose: 12.5 mg/kg/injection, schedule: Q01DX009 (ip), vehicle: saline
  T/C: 100 % of control
dose: 25.0 mg/kg/injection, schedule: Q01DX009 (ip), vehicle: saline
  T/C: 92 % of control
dose: 50.0 mg/kg/injection, schedule: Q01DX009 (ip), vehicle: saline
  T/C: 107 % of control
dose: 50.0 mg/kg/injection, schedule: Q04DX003 (ip), vehicle: other
  T/C: 95 % of control
[4]
  T/C: 108 % of control
[5]
  T/C: 95 % of control

## c1cc2cc3c(cc2cc1CC1=NCCc2cc4c(cc21)OCO4)OCO3
dose: 100.0 mg/kg/injection, schedule: Q01DX001 (ip), vehicle: other
  T/C: 105 % of control
[5]
  T/C: 100 % of control
dose: 200.0 mg/kg/injection, schedule: Q01DX001 (ip), vehicle: other
  T/C: 100 % of control
dose: 200.0 mg/kg/injection, schedule: Q04DX003 (ip), vehicle: other
  T/C: 100 % of control
dose: 400.0 mg/kg/injection, schedule: Q01DX001 (ip), vehicle: other
  T/C: 102 % of control
dose: 400.0 mg/kg/injection, schedule: Q04DX003 (ip), vehicle: other
  T/C: 100 % of control

## COc1cccc(CNc2cccc(Cl)c2Cl)c1OC
dose: 200.0 mg/kg/injection, schedule: Q01DX001 (ip), vehicle: saline with Tween-80
  T/C: 93 % of control and 100 % of control
dose: 400.0 mg/kg/injection, schedule: Q01DX001 (ip), vehicle: saline with Tween-80
  T/C: 93 % of control and 113 % of control

## COC(=O)C1(C)CCC(c2ccc(OC)cc2)CC1=O (stereo unspecified)
dose: 50.0 mg/kg/injection, schedule: Q01DX001 (ip), vehicle: saline
  T/C: 113 % of control
dose: 50.0 mg/kg/injection, schedule: Q04DX003 (ip), vehicle: Klucel (hydroxypropylcellulose) (HPC)
  T/C: 93 % of control
[4]
  T/C: 105 % of control
[6]
  T/C: 106 % of control
[7]
  T/C: 105 % of control
[8]
  T/C: 112 % of control

## CCOC(=O)N(CC)c1ccccc1
[1]
  T/C: 109 % of control
[6]
  T/C: 113 % of control
[2]
  T/C: 111 % of control
[8]
  T/C: 94 % of control
[3]
  T/C: 100 % of control
dose: 400.0 mg/kg/injection, schedule: Q04DX003 (ip), vehicle: Klucel (hydroxypropylcellulose) (HPC)
  T/C: 98 % of control

## O=C(O)O
[4]
  T/C: 86 % of control
[7]
  T/C: 117 % of control
dose: 400.0 mg/kg/injection, schedule: Q01DX001 (ip), vehicle: saline
  T/C: 95 % of control
